In ChEMBL document CHEMBL2311396, “Xanthone derivatives as potential inhibitors of miRNA processing by human Dicer: targeting secondary structures of pre-miRNA by small molecules” (Bioorg Med Chem Lett, 2013) one finds inhibition data, which are given here for 6 compounds.

The target of assay [1] is Endoribonuclease Dicer (Homo sapiens) (UniProt Q9UPY3). Kind of assay: Inhibition of human recombinant Dicer-mediated long dsRNA digestion assessed as 21- to 23-mer short RNA formation at 200 uM after 3 hrs by denaturing-PAGE analysis.
Assay [2] has the same target. Nature of the assay: Inhibition of human recombinant Dicer-mediated pre-miR-29a processing assessed as reduction of mature miR-29a formation at 200 uM after 3 hrs by Northern blot analysis.
Assay [3] shares this target. Nature of the assay: Inhibition of human recombinant Dicer-mediated pre-miR-29a without bulge loop processing assessed as reduction of mature miR-29a formation by Northern blot analysis (reference value: 51%). The conditions noted are these: concentration not given here.
Assay [4] shares this target. Kind of assay: Inhibition of human recombinant Dicer-mediated pre-miR-29a processing assessed as reduction of mature miR-29a formation by Northern blot analysis (reference value: 41%). The conditions noted are these: concentration not given here.
For assay [5] the target is unchanged. Kind of assay: Inhibition of human recombinant Dicer-mediated pre-miR-29a without internal loop processing assessed as reduction of mature miR-29a formation by Northern blot analysis (reference value: 30%). The conditions noted are these: concentration not given here.

Active and inactive are the calls of the source. No cut-off for these calls is given here.

Usually inhibition stands for the change of the read-out against control, counted positive when it falls.

Chain of Endoribonuclease Dicer (Homo sapiens) (Q9UPY3 whole entry): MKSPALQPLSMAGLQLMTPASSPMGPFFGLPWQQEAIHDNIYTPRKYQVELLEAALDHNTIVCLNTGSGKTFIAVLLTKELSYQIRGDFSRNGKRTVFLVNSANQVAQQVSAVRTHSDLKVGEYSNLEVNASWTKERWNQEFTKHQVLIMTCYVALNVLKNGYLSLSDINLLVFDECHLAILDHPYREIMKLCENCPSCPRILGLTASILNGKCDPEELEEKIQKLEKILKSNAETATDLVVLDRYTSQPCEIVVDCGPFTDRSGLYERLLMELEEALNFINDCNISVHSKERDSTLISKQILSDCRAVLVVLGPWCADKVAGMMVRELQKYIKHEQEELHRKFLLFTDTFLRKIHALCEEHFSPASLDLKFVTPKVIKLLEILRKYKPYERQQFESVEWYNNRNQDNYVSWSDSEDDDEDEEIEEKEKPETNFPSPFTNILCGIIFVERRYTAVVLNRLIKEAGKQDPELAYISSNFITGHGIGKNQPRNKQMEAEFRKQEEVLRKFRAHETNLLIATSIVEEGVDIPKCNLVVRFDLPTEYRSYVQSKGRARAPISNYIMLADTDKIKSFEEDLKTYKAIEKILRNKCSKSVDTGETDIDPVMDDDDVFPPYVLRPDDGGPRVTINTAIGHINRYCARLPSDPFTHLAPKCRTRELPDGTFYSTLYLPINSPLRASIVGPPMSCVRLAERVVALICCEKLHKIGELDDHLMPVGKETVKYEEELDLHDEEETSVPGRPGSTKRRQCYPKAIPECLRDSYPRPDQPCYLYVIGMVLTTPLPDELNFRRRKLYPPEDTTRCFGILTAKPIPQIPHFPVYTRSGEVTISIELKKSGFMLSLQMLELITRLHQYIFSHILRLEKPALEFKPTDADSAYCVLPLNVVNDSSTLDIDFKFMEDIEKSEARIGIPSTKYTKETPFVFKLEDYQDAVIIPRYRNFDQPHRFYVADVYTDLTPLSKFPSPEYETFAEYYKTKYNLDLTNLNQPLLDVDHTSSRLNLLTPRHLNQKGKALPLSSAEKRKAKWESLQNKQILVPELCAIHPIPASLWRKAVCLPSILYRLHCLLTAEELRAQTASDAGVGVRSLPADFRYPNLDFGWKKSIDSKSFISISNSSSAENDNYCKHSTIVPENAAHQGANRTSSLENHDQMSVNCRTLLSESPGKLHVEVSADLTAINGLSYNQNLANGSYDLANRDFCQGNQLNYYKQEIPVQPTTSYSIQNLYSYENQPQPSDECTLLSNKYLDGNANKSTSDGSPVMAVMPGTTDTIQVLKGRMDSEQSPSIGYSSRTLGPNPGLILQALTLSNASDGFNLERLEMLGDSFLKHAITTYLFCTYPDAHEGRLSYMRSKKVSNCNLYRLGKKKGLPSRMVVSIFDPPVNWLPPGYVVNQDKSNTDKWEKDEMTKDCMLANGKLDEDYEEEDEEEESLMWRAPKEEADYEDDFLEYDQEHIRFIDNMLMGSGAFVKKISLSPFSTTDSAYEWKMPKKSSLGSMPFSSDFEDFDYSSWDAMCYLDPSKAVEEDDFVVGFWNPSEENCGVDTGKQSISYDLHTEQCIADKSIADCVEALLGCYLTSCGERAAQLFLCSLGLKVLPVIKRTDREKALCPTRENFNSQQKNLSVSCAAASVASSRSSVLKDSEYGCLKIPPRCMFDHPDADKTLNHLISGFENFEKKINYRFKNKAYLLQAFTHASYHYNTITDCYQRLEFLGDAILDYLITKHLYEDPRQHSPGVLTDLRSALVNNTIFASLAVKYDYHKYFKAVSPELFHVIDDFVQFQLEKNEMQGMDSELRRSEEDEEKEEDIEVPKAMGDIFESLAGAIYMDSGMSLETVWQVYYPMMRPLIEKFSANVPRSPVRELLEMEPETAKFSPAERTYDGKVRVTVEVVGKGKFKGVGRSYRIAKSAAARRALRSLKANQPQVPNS

As for `NCCCCCCOc1ccc2oc3ccc(OCCCCCCN)cc3c(=O)c2c1`, the inhibition entry in assay [1] and in assay [2] was “inactive” each time.
Turning to `CN(C)CCOc1ccc2sc3ccc(OCCN(C)C)cc3c(=O)c2c1`, the inhibition result in assay [1] and in assay [2] was “inactive” in each case.
In the case of `NCCOc1ccc2sc3ccc(OCCN)cc3c(=O)c2c1`, the figures for the inhibition in assay [3], in assay [4] and in assay [5] were 46%, 23% and 22%, respectively. In addition, in assay [1], the inhibition entry was “inactive”. The inhibition result in assay [2] was “Active”.
As to `CN(C)CCOc1ccc2oc3ccc(OCCN(C)C)cc3c(=O)c2c1`, the inhibition result in assay [1] and in assay [2] was “inactive” throughout.
In the case of `CC(CN)Oc1ccc2oc3ccc(OC(C)CN)cc3c(=O)c2c1` (stereo not given), the inhibition entry in assay [1] and in assay [2] was “inactive” in each case.
As for `NCCOc1ccc2oc3ccc(OCCN)cc3c(=O)c2c1`, the inhibition result in assay [1] is “inactive”. Moreover, the inhibition result in assay [2] was “Active”.
